Data published in patent publication US8158636B2, “Compounds and methods for kinase modulation, and indications therefor” (Plexxikon Inc., priority 2008, dated 2012).

Assays:
Type in all cases: biochemical
Fms = Fms (Homo sapiens, UniProt P07333); assay: Kinase activity assay, Fms; details: Table 1h; read-out: activity toward kinase Fms, IC50
Text: (§1) Assays for the activity of kinases, including, but not limited to, Fms, Kit, B-Raf, B-Raf V600E, c-Raf-1, and TrkA are known in the art, for example as described in US Patent Publication Number US20070032519 and U.S. patent application Ser. No. 11/473,347 (see also, PCT publication WO2007002433), the disclosures of which are hereby incorporated by reference with respect to such assays.

Kit = Kit (Homo sapiens, UniProt P10721); assay: Kinase activity assay, Kit; details: Table 1j; read-out: activity toward kinase Kit, IC50
Kit, sequence (P10721 26-976): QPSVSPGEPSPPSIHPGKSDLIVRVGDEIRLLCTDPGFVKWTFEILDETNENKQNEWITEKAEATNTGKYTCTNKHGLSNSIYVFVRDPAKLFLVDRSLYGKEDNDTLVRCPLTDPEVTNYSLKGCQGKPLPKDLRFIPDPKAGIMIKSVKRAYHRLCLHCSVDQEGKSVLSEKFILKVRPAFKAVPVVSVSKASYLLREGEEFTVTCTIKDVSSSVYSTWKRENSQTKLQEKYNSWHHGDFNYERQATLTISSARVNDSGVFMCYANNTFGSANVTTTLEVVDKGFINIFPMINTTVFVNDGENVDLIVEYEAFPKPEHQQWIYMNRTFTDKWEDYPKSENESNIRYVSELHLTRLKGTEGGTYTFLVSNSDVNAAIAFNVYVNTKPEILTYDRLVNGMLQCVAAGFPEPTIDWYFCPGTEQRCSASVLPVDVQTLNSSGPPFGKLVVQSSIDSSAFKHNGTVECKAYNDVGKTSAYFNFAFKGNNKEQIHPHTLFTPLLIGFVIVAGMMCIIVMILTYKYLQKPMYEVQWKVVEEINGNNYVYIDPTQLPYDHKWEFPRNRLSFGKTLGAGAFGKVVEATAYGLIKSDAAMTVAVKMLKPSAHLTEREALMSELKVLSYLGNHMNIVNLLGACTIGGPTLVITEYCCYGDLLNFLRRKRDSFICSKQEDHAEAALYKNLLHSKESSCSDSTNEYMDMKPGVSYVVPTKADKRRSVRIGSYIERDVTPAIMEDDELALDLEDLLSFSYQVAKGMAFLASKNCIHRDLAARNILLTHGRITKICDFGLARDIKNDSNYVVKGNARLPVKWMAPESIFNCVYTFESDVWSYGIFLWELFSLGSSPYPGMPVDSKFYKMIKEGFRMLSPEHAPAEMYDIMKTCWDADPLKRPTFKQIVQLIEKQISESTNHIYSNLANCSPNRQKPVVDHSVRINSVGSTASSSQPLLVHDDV
Text: as §1

C-Raf = C-Raf (Homo sapiens, UniProt P04049); assay: Kinase activity assay, C-Raf; details: Table 1d; read-out: activity toward kinase C-Raf, IC50
C-Raf, sequence (P04049 whole entry): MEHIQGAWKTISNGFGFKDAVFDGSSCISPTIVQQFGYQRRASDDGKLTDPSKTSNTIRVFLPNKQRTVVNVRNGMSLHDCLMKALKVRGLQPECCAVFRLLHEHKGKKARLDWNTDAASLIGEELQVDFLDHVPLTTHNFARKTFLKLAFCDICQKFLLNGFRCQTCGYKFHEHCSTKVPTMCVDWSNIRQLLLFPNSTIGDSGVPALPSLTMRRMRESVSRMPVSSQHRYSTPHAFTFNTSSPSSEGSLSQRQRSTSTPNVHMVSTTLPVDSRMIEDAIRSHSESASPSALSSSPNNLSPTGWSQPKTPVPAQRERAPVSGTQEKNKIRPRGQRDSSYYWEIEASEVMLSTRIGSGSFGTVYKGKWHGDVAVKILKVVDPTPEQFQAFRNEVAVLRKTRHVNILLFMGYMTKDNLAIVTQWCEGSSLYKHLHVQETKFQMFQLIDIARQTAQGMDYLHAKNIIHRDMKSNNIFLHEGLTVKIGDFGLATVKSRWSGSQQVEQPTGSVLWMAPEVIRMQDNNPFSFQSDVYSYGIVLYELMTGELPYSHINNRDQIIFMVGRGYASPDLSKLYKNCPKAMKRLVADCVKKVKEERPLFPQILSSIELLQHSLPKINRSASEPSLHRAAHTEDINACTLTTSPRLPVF
Text: as §1

Src = Src (Homo sapiens, UniProt P12931); assay: Kinase activity assay, Src; details: Table 1k; read-out: activity toward kinase Src, IC50
Src, sequence (P12931 whole entry): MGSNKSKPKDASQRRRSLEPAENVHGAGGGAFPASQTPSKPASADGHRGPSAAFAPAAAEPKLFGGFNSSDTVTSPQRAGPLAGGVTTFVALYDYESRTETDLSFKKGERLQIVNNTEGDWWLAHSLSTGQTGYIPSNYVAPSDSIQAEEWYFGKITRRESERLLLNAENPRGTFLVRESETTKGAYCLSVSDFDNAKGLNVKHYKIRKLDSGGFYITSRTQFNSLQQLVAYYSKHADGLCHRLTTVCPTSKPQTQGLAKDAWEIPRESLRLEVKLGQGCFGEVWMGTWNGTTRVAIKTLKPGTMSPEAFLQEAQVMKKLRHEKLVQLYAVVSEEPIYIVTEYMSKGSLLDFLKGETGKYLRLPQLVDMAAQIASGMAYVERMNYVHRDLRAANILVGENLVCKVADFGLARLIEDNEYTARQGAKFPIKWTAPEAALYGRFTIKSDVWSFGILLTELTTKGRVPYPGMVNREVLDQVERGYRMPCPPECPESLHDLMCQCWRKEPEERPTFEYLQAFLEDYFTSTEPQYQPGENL
Text: as §1

Btk = Btk (Homo sapiens, UniProt Q06187); assay: Kinase activity assay, Btk; details: Table 1e; read-out: activity toward kinase Btk, IC50
Btk, sequence (Q06187 whole entry): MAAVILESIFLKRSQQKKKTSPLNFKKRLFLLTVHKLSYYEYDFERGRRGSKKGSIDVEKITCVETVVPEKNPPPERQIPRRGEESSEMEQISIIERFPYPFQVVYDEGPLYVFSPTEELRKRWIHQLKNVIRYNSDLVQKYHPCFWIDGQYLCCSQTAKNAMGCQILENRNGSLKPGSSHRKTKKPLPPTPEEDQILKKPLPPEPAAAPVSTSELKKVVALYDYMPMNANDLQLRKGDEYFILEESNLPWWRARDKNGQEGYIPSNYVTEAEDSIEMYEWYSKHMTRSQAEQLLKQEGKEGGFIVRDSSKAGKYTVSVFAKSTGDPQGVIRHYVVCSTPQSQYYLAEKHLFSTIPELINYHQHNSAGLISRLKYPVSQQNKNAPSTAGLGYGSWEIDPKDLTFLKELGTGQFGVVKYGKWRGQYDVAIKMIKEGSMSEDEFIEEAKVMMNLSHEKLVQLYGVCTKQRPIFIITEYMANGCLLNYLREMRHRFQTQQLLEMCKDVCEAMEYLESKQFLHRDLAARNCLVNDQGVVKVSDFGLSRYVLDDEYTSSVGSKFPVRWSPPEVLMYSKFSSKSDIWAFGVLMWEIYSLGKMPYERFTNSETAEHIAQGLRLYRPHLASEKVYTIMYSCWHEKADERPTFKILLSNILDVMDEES
Text: as §1

TrkA = TrkA (Homo sapiens, UniProt P04629); assay: Kinase activity assay, TrkA; details: Table 1m; read-out: activity toward kinase TrkA, IC50
Text: as §1

Kdr = Kdr (Homo sapiens, UniProt P35968); assay: Kinase activity assay, Kdr; details: Table 1i; read-out: activity toward kinase Kdr, IC50
Kdr, sequence (P35968 20-1356): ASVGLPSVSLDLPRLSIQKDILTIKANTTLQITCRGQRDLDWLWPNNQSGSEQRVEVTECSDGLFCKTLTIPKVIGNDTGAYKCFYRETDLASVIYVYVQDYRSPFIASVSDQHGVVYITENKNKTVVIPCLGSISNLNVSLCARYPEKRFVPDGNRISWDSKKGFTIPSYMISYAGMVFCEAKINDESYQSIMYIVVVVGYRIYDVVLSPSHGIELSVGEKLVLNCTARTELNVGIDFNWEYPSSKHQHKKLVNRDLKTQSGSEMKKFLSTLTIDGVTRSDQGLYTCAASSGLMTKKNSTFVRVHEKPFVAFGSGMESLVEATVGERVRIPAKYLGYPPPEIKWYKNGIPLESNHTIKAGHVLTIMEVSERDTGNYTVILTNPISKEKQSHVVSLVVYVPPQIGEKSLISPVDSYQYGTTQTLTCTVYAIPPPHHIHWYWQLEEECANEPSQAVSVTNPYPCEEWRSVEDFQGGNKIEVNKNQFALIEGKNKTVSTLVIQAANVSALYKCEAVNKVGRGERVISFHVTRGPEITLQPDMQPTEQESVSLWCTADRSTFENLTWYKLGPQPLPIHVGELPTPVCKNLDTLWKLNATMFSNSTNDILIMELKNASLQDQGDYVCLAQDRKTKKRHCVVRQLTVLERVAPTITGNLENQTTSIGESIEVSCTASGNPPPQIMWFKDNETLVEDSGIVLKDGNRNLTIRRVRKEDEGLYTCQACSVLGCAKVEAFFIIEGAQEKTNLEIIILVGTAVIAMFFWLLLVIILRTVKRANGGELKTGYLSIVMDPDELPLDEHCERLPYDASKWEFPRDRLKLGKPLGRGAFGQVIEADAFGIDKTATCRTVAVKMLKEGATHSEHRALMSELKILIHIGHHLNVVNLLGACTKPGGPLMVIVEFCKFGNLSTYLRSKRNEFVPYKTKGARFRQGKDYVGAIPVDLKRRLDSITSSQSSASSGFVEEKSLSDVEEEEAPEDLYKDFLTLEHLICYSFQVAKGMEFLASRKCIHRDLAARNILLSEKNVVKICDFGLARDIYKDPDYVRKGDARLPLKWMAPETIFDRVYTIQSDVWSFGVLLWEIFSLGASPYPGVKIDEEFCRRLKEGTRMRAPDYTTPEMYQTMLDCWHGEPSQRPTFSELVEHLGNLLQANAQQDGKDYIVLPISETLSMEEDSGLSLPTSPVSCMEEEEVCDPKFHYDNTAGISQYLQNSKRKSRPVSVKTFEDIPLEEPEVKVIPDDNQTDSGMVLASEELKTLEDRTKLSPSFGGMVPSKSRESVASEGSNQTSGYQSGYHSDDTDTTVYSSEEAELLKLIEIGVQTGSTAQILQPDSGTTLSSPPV
Text: as §1

Flt-3 = target: T1, Flt-3 (Homo sapiens, UniProt P36888); assay: Kinase activity assay, Flt-3; details: Table 1g; read-out: activity toward kinase Flt-3, IC50
T1 sequence (P36888 27-993): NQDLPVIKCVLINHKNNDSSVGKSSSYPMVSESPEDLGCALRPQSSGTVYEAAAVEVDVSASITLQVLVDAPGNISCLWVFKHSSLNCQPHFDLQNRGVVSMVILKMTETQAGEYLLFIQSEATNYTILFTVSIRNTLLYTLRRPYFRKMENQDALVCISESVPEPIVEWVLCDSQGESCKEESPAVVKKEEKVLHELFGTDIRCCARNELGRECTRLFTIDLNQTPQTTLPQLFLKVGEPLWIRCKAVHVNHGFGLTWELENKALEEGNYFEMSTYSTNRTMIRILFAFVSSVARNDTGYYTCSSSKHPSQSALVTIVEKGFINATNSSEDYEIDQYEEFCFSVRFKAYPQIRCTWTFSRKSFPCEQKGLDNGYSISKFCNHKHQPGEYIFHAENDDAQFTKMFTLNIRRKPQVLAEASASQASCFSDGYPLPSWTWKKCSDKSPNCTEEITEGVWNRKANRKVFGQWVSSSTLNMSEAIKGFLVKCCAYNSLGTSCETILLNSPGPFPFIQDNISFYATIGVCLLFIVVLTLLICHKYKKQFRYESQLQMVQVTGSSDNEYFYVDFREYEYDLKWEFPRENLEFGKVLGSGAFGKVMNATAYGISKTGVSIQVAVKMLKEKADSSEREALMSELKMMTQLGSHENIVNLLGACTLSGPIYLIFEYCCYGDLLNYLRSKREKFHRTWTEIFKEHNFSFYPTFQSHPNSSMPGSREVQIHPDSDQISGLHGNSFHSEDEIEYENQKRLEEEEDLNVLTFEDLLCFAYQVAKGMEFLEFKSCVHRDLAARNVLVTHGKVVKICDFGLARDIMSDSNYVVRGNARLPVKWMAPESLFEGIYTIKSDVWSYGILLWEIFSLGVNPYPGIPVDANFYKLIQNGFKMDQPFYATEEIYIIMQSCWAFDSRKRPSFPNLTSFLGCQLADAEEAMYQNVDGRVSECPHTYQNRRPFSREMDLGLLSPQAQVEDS
Text: as §1

A-Raf = target: T2, A-Raf (Homo sapiens, UniProt P10398); assay: Kinase activity assay, A-Raf; details: Table 1a; read-out: activity toward kinase A-Raf, IC50
T2 sequence (P10398 1-606): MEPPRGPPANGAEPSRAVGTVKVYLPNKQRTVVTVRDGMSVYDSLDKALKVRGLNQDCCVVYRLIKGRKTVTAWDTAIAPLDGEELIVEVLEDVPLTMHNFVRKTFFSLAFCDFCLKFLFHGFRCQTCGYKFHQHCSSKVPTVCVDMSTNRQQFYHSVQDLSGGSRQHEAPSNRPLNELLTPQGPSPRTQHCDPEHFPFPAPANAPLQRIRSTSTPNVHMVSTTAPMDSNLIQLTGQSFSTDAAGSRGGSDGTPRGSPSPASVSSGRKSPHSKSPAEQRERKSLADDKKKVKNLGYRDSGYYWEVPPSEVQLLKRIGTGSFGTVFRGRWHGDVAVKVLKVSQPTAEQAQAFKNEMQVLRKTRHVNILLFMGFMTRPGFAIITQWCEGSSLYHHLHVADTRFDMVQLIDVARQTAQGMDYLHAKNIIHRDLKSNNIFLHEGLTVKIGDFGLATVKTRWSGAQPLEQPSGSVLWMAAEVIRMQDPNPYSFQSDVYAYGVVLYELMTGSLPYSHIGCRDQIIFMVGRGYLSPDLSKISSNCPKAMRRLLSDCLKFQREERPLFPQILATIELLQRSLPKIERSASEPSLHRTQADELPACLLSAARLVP
Text: as §1

B-Raf V600E = B-Raf V600E (Homo sapiens, UniProt P15056, V600E); assay: Kinase activity assay, B-Raf V600E; details: Table 1c; read-out: activity toward kinase B-Raf V600E, IC50
Text: as §1

B-Raf = B-Raf (Homo sapiens, UniProt P15056); assay: Kinase activity assay, B-Raf; details: Table 1b; read-out: activity toward kinase B-Raf, IC50
Text: as §1

Flt-1 = Flt-1 (Homo sapiens, UniProt P17948); assay: Kinase activity assay, Flt-1; details: Table 1f; read-out: activity toward kinase Flt-1, IC50
Text: as §1

Measured: IC50

Fms, sequence (P07333 20-972): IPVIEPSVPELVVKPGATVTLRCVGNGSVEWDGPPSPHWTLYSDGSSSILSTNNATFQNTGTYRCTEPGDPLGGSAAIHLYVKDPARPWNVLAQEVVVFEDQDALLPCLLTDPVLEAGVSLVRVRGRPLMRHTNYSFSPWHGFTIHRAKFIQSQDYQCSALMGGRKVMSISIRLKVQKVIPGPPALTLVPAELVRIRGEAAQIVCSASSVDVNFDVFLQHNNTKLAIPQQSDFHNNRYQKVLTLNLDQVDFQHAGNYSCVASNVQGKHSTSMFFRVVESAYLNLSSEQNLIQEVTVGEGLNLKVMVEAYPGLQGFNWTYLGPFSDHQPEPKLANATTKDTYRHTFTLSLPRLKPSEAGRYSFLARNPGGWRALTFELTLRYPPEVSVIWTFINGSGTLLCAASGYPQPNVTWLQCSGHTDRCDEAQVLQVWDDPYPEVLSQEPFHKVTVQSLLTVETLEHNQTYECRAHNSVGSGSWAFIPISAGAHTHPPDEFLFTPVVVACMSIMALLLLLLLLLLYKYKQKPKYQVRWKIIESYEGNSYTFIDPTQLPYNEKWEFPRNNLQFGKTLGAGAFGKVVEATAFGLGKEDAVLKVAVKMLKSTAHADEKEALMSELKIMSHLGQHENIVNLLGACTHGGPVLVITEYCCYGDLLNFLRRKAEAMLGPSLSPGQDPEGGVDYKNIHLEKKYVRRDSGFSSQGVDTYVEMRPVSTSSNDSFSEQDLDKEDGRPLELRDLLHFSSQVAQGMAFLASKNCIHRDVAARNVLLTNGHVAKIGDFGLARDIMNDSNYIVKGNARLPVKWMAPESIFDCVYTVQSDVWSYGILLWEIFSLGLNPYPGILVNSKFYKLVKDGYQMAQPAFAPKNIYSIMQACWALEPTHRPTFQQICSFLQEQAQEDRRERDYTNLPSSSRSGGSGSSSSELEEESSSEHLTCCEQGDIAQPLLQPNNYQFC

COc1ncc(CNc2ncc(Cc3c[nH]c4ncnc(OC)c34)cn2)cc1F [P-0092, (5-Fluoro-6-methoxy-pyridin-3-ylmethyl)-[5-(4-methoxy-7H-pyrrolo[2,3-d]pyrimidin-5-ylmethyl)-pyrimidin-2-yl]-amine]
≤ 10 µM: Fms | Kit | C-Raf | Src

COc1ncnc2[nH]cc(Cc3cnc(NCc4cncc(F)c4)nc3)c12 [P-0098, (5-Fluoro-pyridin-3-ylmethyl)-[5-(4-methoxy-7H-pyrrolo[2,3-d]pyrimidin-5-ylmethyl)-pyrimidin-2-yl]-amine]
≤ 10 µM: Fms | Btk | Kit | TrkA

COc1ncc(F)cc1CNc1ccc(Cc2c[nH]c3ncncc23)c(F)n1 [P-0011, (5-Fluoro-2-methoxy-pyridin-3-ylmethyl)-[6-fluoro-5-(7H-pyrrolo[2,3-d]pyrimidin-5-ylmethyl)-pyridin-2-yl]-amine]
≤ 10 µM: Fms | Kdr | Flt-3 | Kit | A-Raf | TrkA

COc1ncnc2[nH]cc(Cc3ccc(NCc4ccccc4Cl)nc3)c12 [P-0014, (2-Chloro-benzyl)-[5-(4-methoxy-7H-pyrrolo[2,3-d]pyrimidin-5-ylmethyl)-pyridin-2-yl]-amine]
≤ 10 µM: Fms | Kdr | B-Raf V600E | Flt-3 | Kit | A-Raf | Src

Fc1nc(NCc2cccnc2OC2CCCCC2)ccc1Cc1c[nH]c2ncncc12 [P-0088, (2-Cyclohexyloxy-pyridin-3-ylmethyl)-[6-fluoro-5-(7H-pyrrolo[2,3-d]pyrimidin-5-ylmethyl)-pyridin-2-yl]-amine]
≤ 10 µM: Fms | Kdr | B-Raf V600E | B-Raf | Kit | C-Raf | Src

COc1ncnc2[nH]cc(Cc3ccc(NCc4ccccc4Cl)nc3F)c12 [P-0090, (2-Chloro-benzyl)-[6-fluoro-5-(4-methoxy-7H-pyrrolo[2,3-d]pyrimidin-5-ylmethyl)-pyridin-2-yl]-amine]
≤ 10 µM: Fms | Kit | Src | TrkA

COc1ncnc2[nH]cc(Cc3ccc(NCc4cnccc4C(F)(F)F)nc3F)c12 [P-0095, [6-Fluoro-5-(4-methoxy-7H-pyrrolo[2,3-d]pyrimidin-5-ylmethyl)-pyridin-2-yl]-(4-trifluoromethyl-pyridin-3-ylmethyl)-amine]
≤ 10 µM: Fms | B-Raf V600E | Kit | Src | TrkA

Fc1nc(NCc2ccc(C(F)(F)F)nc2)ccc1Cc1c[nH]c2ncncc12 [P-0007, [6-Fluoro-5-(7H-pyrrolo[2,3-d]pyrimidin-5-ylmethyl)-pyridin-2-yl]-(6-trifluoromethyl-pyridin-3-ylmethyl)-amine]
≤ 10 µM: Fms | Kdr | B-Raf V600E | Flt-3 | Kit | A-Raf | TrkA

Fc1nc(NCc2ccc(N3CCCC3)cn2)ccc1Cc1c[nH]c2ncncc12 [P-0089, [6-Fluoro-5-(7H-pyrrolo[2,3-d]pyrimidin-5-ylmethyl)-pyridin-2-yl]-(5-pyrrolidin-1-yl-pyridin-2-ylmethyl)-amine]
≤ 10 µM: Fms | Kdr | B-Raf V600E | Kit | Src

COc1ncccc1CNc1ccc(Cc2c[nH]c3ncnc(OC)c23)c(F)n1 [P-0097, [6-Fluoro-5-(4-methoxy-7H-pyrrolo[2,3-d]pyrimidin-5-ylmethyl)-pyridin-2-yl]-(2-methoxy-pyridin-3-ylmethyl)-amine]
≤ 10 µM: Fms | Kit | Src | TrkA

Fc1nc(NCc2ccc(Cl)cc2)ccc1Cc1c[nH]c2ncncc12 [P-0006, (4-Chloro-benzyl)-[6-fluoro-5-(7H-pyrrolo[2,3-d]pyrimidin-5-ylmethyl)-pyridin-2-yl]-amine]
not listed: C-Raf | Btk | B-Raf
≤ 10 µM: all other assays above

Fc1nc(NCc2ccccc2Cl)ccc1Cc1c[nH]c2ncncc12 [P-0005, (2-Chloro-benzyl)-[6-fluoro-5-(7H-pyrrolo[2,3-d]pyrimidin-5-ylmethyl)-pyridin-2-yl]-amine]
≤ 10 µM: Fms | Kdr | Flt-3 | Kit | Src | TrkA

COc1ncnc2[nH]cc(Cc3ccc(NCc4ccc(C(F)(F)F)nc4)nc3F)c12 [P-0101, [6-Fluoro-5-(4-methoxy-7H-pyrrolo[2,3-d]pyrimidin-5-ylmethyl)-pyridin-2-yl]-(6-trifluoromethyl-pyridin-3-ylmethyl)-amine]
not listed: Src | Flt-3 | A-Raf | Flt-1
≤ 10 µM: all other assays above

COc1ccc(CNc2ccc(Cc3c[nH]c4ncncc34)c(F)n2)cn1 [P-0009, [6-Fluoro-5-(7H-pyrrolo[2,3-d]pyrimidin-5-ylmethyl)-pyridin-2-yl]-(6-methoxy-pyridin-3-ylmethyl)-amine]
≤ 10 µM: Fms | Kdr | B-Raf V600E | Flt-3 | Btk | Kit | A-Raf

COc1ccc(CNc2ccc(Cc3c[nH]c4ncnc(OC)c34)cn2)cn1 [P-0013, (6-Methoxy-pyridin-3-ylmethyl)-[5-(4-methoxy-7H-pyrrolo[2,3-d]pyrimidin-5-ylmethyl)-pyridin-2-yl]-amine]
≤ 10 µM: Fms | Kdr | B-Raf V600E | Flt-3 | B-Raf | Kit | A-Raf
